Read-outs that look alike come from different tables or passages of the source.
Columns and labels:
TNFα = test: IRAK4 Monocyte TNFα Cell Based Assay (LPS-stimulated, TR-FRET TNFα detection); set-up: species or system human; settings: Homo sapiens, Monocyte, read-out: EC50 MONO TNF HTRF
Outline: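 Monocytes (5,000 cells/well) treated with compound (0.1% DMSO) for 1 hour at 37° C, then stimulated with 50 pg/ml LPS for 4 hours. TNFα in medium quantified by TR-FRET two-antibody detection after overnight room-temperature incubation. Percent of control calculated against unstimulated (0%) and LPS-stimulated (100%) cells.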

IRAK4 enzyme = target: T1, IRAK4 enzyme (Homo sapiens, UniProt Q9NWZ3); test: IRAK4 Biochemical Assay (TR-FRET, STK1 KinEASE); settings: 500 μM ATP, Table 2 second part (compounds 33-343), read-out: IC50 IRAK4-HTBS
T1 construct: purchased Carna Biosciences, Chuo-ku, Kobe, Japan
T1 sequence (Q9NWZ3 1-460): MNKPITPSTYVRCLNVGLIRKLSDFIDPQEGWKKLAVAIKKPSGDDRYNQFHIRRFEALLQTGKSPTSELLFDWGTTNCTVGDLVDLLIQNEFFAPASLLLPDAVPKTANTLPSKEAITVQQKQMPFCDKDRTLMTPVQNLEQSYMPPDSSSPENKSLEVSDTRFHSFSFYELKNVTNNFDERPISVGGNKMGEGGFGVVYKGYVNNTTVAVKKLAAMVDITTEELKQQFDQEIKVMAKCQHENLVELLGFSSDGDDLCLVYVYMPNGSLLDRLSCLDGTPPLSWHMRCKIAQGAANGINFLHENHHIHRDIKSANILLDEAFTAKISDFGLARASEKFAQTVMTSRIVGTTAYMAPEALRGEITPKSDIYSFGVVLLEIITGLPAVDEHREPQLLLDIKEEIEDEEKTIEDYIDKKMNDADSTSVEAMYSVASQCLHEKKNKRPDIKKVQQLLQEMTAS
Outline: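 Human IRAK4 (0.75 nM) preincubated 15 min with compound and 2 μM STK1 peptide, then reacted 120 min at room temperature with 500 μM ATP in HEPES pH 7.0 buffer with MgCl2 and DTT. EDTA stop with Cryptate anti-phosphopeptide antibody and tracer, 60 min; TR-FRET read as 665/615 nm ratio.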

[1] = human monocytes, LPS-stimulated, Table 2 second part (compounds 33-343)

Structure (SMILES)	EC50 (TNFα; [1])	IC50 (IRAK4 enzyme)	EC50 (TNFα)
CC(C)Nc1cc(-c2ccc3cc(C#N)cnn23)ncc1-c1nnc(N2C[C@H]3CC[C@@H](C2)[C@@H]3NC(=O)C2CC2)s1 [Example 150, N-((1R,5S,8s)-3-(5-(6-(3-cyanopyrrolo[1,2-b]pyridazin-7-yl)-4-(isopropylamino)pyridin-3-yl)-1,3,4-thiadiazol-2-yl)-3-azabicyclo[3.2.1]octan-8-yl)cyclopropanecarboxamide]	5.2 nM	0.46 nM	–
CC(C)Nc1cc(-c2ccc3cc(C#N)cnn23)ncc1-c1nnc(N2C[C@H]3CC[C@@H](C2)[C@@]3(C)O)s1 [Example 153, 7-(5-(5-((1R,5S,8r)-8-hydroxy-8-methyl-3-azabicyclo[3.2.1]octan-3-yl)-1,3,4-thiadiazol-2-yl)-4-(isopropylamino)pyridin-2-yl)pyrrolo[1,2-b]pyridazine-3-carbonitrile]	7.2 nM	0.91 nM	–
CC(=O)N[C@]1(C)[C@@H]2CC[C@H]1CN(c1nnc(-c3cnc(-c4ccc5cc(C#N)cnn45)cc3NC(C)C)s1)C2 [Example 155, N-((1R,5S,8s)-3-(5-(6-(3-cyanopyrrolo[1,2-b]pyridazin-7-yl)-4-(isopropylamino)pyridin-3-yl)-1,3,4-thiadiazol-2-yl)-8-methyl-3-azabicyclo[3.2.1]octan-8-yl)acetamide]	7.4 nM	1.52 nM	–
N#Cc1cnn2c(-c3cc(NC4CCOCC4)c(-c4nnc([C@H]5CC[C@H](NC(=O)C6CC6)CC5)s4)cn3)ccc2c1 [Example 156, N-((1r,4r)-4-(5-(6-(3-cyanopyrrolo[1,2-b]pyridazin-7-yl)-4-((tetrahydro-2H-pyran-4-yl)amino)pyridin-3-yl)-1,3,4-thiadiazol-2-yl)cyclohexyl)cyclopropanecarboxamide]	10.9 nM	1.42 nM	–
CC(=O)N[C@]1(C)[C@@H]2CC[C@H]1CN(c1nnc(-c3cnc(-c4ccc5cc(C#N)cnn45)cc3N[C@H](C)C#N)s1)C2 [Example 157, N-((1R,5S,8S)-3-(5-(4-(((R)-1-cyanoethyl)amino)-6-(3-cyanopyrrolo[1,2-b]pyridazin-7-yl)pyridin-3-yl)-1,3,4-thiadiazol-2-yl)-8-methyl-3-azabicyclo[3.2.1]octan-8-yl)acetamide]	1.8 nM	1.03 nM	–
CC1(Nc2cc(-c3ccc4cc(C#N)cnn34)ncc2-c2nnc([C@H]3CC[C@H](NC(=O)C4CC4)CC3)s2)COC1 [Example 158, N-((1r,4r)-4-(5-(6-(3-cyanopyrrolo[1,2-b]pyridazin-7-yl)-4-((3-methyloxetan-3-yl)amino)pyridin-3-yl)-1,3,4-thiadiazol-2-yl)cyclohexyl)cyclopropanecarboxamide]	19.8 nM	1.15 nM	–
C[C@H](C#N)Nc1cc(-c2ccc3cc(C#N)cnn23)ncc1-c1nnc([C@H]2CC[C@H](NC(=O)C3CC3)CC2)s1 [Example 160, N-((1R,4r)-4-(5-(4-(((R)-1-cyanoethyl)amino)-6-(3-cyanopyrrolo[1,2-b]pyridazin-7-yl)pyridin-3-yl)-1,3,4-thiadiazol-2-yl)cyclohexyl)cyclopropanecarboxamide]	2.8 nM	0.52 nM	–
CC(=O)N[C@H]1[C@@H]2CCC[C@H]1CN(c1nnc(-c3cnc(-c4ccc5cc(C#N)cnn45)cc3NC(C)C)s1)C2 [Example 165, N-((1R,5S,9r)-3-(5-(6-(3-cyanopyrrolo[1,2-b]pyridazin-7-yl)-4-(isopropylamino)pyridin-3-yl)-1,3,4-thiadiazol-2-yl)-3-lazabicyclo[3.3.1]nonan-9-yl)acetamide]	39.1 nM	1.15 nM	–
CC(=O)N[C@@H]1[C@@H]2CCC[C@H]1CN(c1nnc(-c3cnc(-c4ccc5cc(C#N)cnn45)cc3NC(C)C)s1)C2 [Example 166, N-((1R,5S,9s)-3-(5-(6-(3-cyanopyrrolo[1,2-b]pyridazin-7-yl)-4-(isopropylamino)pyridin-3-yl)-1,3,4-thiadiazol-2-yl)-3-azabicyclo[3.3.1]nonan-9-yl)acetamide]	2.3 nM	0.66 nM	–
CC(=O)N[C@@H]1[C@@H]2CC[C@H]1CN(c1nnc(-c3cnc(-c4ccc5cc(C#N)cnn45)cc3NC3CCOCC3)s1)C2 [Example 171, N-((1R,5S,8s)-3-(5-(6-(3-cyanopyrrolo[1,2-b]pyridazin-7-yl)-4-((tetrahydro-2H-pyran-4-yl)amino)pyridin-3-yl)-1,3,4-thiadiazol-2-yl)-3-azabicyclo[3.2.1]octan-8-yl)acetamide]	2.1 nM	0.46 nM	–
CC(=O)N[C@@H]1[C@@H]2C[C@H]1CN(c1nnc(-c3cnc(-c4ccc5cc(C#N)cnn45)cc3NC(C)C)s1)C2 [Example 173, N-((1R,5S,6s)-3-(5-(6-(3-cyanopyrrolo[1,2-b]pyridazin-7-yl)-4-(isopropylamino)pyridin-3-yl)-1,3,4-thiadiazol-2-yl)-3-azabicyclo[3.1.1]heptan-6-yl)acetamide]	–	1.52 nM	11.6 nM
CC(=O)N[C@@H]1[C@@H]2C[C@H]1CN(c1nnc(-c3cnc(-c4ccc5cc(C#N)cnn45)cc3N[C@H](C)C#N)s1)C2 [Example 174, N-((1R,5S,6S)-3-(5-(4-(((R)-1-cyanoethyl)amino)-6-(3-cyanopyrrolo[1,2-b]pyridazin-7-yl)pyridin-3-yl)-1,3,4-thiadiazol-2-yl)-3-azabicyclo[3.1.1]heptan-6-yl)acctamide]	–	0.49 nM	3.5 nM
CC(=O)N[C@@H]1[C@@H]2C[C@H]1CN(c1nnc(-c3cnc(-c4ccc5cc(C#N)cnn45)cc3NC3(C)COC3)s1)C2 [Example 175, N-((1R,5S,6s)-3-(5-(6-(3-cyanopyrrolo[1,2-b]pyridazin-7-yl)-4-((3-methyloxetan-3-yl)amino)pyridin-3-yl)-1,3,4-thiadiazol-2-yl)-3-azabicyclo[3.1.1]heptan-6-yl)acetamide]	–	0.57 nM	9 nM
CNc1cc(-c2ccc3cc(C#N)cnn23)ncc1-c1nnc(N2C[C@H]3C[C@@H](C2)[C@@H]3NC(C)=O)s1 [Example 176, N-((1R,5S,6s)-3-(5-(6-(3-cyanopyrrolo[1,2-b]pyridazin-7-yl)-4-(methylamino)pyridin-3-yl)-1,3,4-thiadiazol-2-yl)-3-azabicyclo[3.1.1]heptan-6-yl)acetamide]	–	0.76 nM	23.5 nM
CC(=O)N[C@@H]1[C@@H]2C[C@H]1CN(c1nnc(-c3cnc(-c4ccc5cc(C#N)cnn45)cc3NC3COC3)s1)C2 [Example 179, N-((1R,5S,6s)-3-(5-(6-(3-cyanopyrrolo[1,2-b]pyridazin-7-yl)-4-(oxetan-3-ylamino)pyridin-3-yl)-1,3,4-thiadiazol-2-yl)-3-azabicyclo[3.1.1]heptan-6-yl)acetamide]	–	0.37 nM	6.4 nM
CC(=O)N[C@H]1[C@@H]2COC[C@H]1CN(c1nnc(-c3cnc(-c4ccc5cc(C#N)cnn45)cc3NC(C)C)s1)C2 [Example 182, N-((1R,5S,9r)-7-(5-(6-(3-cyanopyrrolo[1,2-b]pyridazin-7-yl)-4-(isopropylamino)pyridin-3-yl)-1,3,4-thiadiazol-2-yl)-3-oxa-7-azabicyclo[3.3.1]nonan-9-yl)acetamide]	37.8 nM	0.53 nM	–
CC(=O)N[C@@H]1[C@@H]2CC[C@H]1CN(c1nnc(-c3cnc(-c4ccc5cc(C#N)cnn45)cc3NC3COC3)s1)C2 [Example 184, N-((1R,5S,8s)-3-(5-(6-(3-cyanopyrrolo[1,2-b]pyridazin-7-yl)-4-(oxetan-3-ylamino)pyridin-3-yl)-1,3,4-thiadiazol-2-yl)-3-azabicyclo[3.2.1]octan-8-yl)acetamide]	2.4 nM	0.54 nM	–
CC(C)Nc1cc(-c2ccc3cc(C#N)cnn23)ncc1-c1nnc([C@H]2C[C@@](C)(O)C2)s1 [Example 199, 7-(5-(5-((1s,3s)-3-hydroxy-3-methylcyclobutyl)-1,3,4-thiadiazol-2-yl)-4-(isopropylamino)pyridin-2-yl)pyrrolo[1,2-b]pyridazine-3-carbonitrile]	38.3 nM	0.69 nM	–
C[C@]1(O)C[C@@H](c2nnc(-c3cnc(-c4ccc5cc(C#N)cnn45)cc3NC3COC3)s2)C1 [Example 200, 7-(5-(5-((1s,3s)-3-hydroxy-3-methylcyclobutyl)-1,3,4-thiadiazol-2-yl)-4-(oxetan-3-ylamino)pyridin-2-yl)pyrrolo[1,2-b]pyridazine-3-carbonitrile]	24.1 nM	0.63 nM	–
CC(=O)N[C@H]1C[C@H](c2nnc(-c3cnc(-c4ccc5cc(C#N)cnn45)cc3NC3CCOCC3)s2)C1 [Example 201, N-((1r,3r)-3-(5-(6-(3-cyanopyrrolo[1,2-b]pyridazin-7-yl)-4-((tetrahydro-2H-pyran-4-yl)amino)pyridin-3-yl)-1,3,4-thiadiazol-2-yl)cyclobutyl)acetamide]	34.9 nM	1.17 nM	–

Source: US12060351B2, “Thiadiazole IRAK4 inhibitors” (Gilead Sciences, Inc., priority 2018, dated 2024)
